Tests used:
[1] = tested on: Staphylococcus aureus ATCC 25923; assay: Disk-diffusion test with ampicillin disk, inoculation by flooding or by droplets along an axis; type: cell-based; settings: disk containing 10 pig of ampicillin, 0.5 McFarland, 37° C. for 6 hours 30 minutes; similar for flooding and droplets; EUCAST threshold R 18 mm
From the text: A conventional test of sensitivity is the disk-diffusion test, often referred to as the Kirby-Bauer method. This standardized method involves the inoculation of an agar culture medium (for example a 90 mm or 150 mm Mueller-Hinton agar) with a sample, generally standardized to 0.5 McFarland, obtained from a microbial isolate. The inoculation may be performed by conventional manual methods, by means of a swab or a loop. Alternatively, the inoculation may be performed by flooding the agar with a suspension standardized to one tenth of 0.5 McFarland, followed by removal of the excess sample. Following the inoculation, one or more paper disks impregnated with defined concentrations of antibiotics are deposited on the surface of the agar. After an incubation period, generally from 16 to 20 hours at 35° C., the diameter of the zone(s) of inhibition around the disks makes it possible to determine the sensitivity of the microorganism present in the inoculated sample to each of the antimicrobial agents impregnated in each disk. Due to the standardization of the Kirby-Bauer method, the results of this method are analyzed by comparing the diameter of each of the zones of inhibition with the recommendations published by regulatory bodies such as NCCLS (National Committee for Clinical Laboratory Standards) or EUCAST (European Committee on Antimicrobial Susceptibility Testing). […]

[2] = tested on: Escherichia coli ATCC 25922; assay: Etest strip MIC, sample deposited by smearing with a filtration sampling tool along two axes; type: cell-based; settings: smear deposition, incubated at 35° C., shadowgraphy images from 3 h 30; visual examination at 6 h 30 confirms
From the text: A third method of implementation of the invention is illustrated by FIGS. 11a, 11b and 12. In this method, the sample is deposited by smearing on the surface of the culture medium (e.g. agar in a Petri dish with a diameter greater than or equal to 9 cm) by means of a sampling tool such as described in the international application published under the number WO2012/083150. Such an integrated device makes it possible to carry out one or more filtration steps and also to transfer a liquid sample. Said device comprises a tubular portion, one of the ends of which is covered with a filtration material such as a membrane, said filtration material being arranged outside this end and covering it totally. The other end of the tubular portion is able to be connected to a suction or dispensing means such as a vacuum pump. The benefit of using such a tool especially being able to estimate the MIC of a sample originating from a positive blood culture bottle, that is to say one which has a result confirming the presence of microorganisms after a given incubation time. For this purpose, the sample may especially be prepared by taking off a volume of the positive blood culture, carrying out a step of lysis, for example chemical lysis, of the blood cells of the volume taken off, then by carrying out filtration of the lysed volume by suction at the surface of a membrane. […]

Compound | diameter D of the zone of inhibition [1] [mm] | minimum inhibitory concentration [2] [µg/mL]
CC1(C)S[C@@H]2[C@H](NC(=O)[C@H](N)c3ccccc3)C(=O)N2[C@H]1C(=O)O [Ampicillin, ampicillin] | 22 | 
gentamicin |  | 1.5
